From patent US9771430B2, “Method of treating a metabolic disorder induced by obesity in a subject in need thereof by administering MK2/3 inhibitors” (THE TRUSTEES OF COLUMBIA UNIVERSITY IN THE CITY OF NEW YORK, priority 2011, dated 2017)

How the values were obtained:
[1] = system: CaMKII; assay: Hepatic CaMKII phosphorylation in mice; assay type: in vivo, mouse
Method: FIGS. 1A-J. Glucagon and fasting activates hepatic CaMKII. FIG. 1A. CaMKII enzyme activity was assayed in triplicate wells of primary mouse HCs stimulated with 100 nM glucagon (Gluc) or vehicle control (Veh) for the indicated times (*P<0.05 and **P<0.01 vs. Veh; mean±S.E.M.). FIGS. 1B-1J. Extracts of HCs or liver were probed for phospho-CaMKII, total CaMKII, and β-actin by immunoblot assay. FIG. 1B. HCs were incubated with […] glucagon for the indicated times; FIG. 1C. Glucagon was added to HCs that were pre-treated for 1 h with vehicle control (Veh) or 5 μM BAPTA-AM; FIG. 1D. Glucagon was added to HCs that were pre-treated with 0.5 μM xestospongin (XesC) or to HCs from Ip3r1fl/fl mice transduced with adeno-LacZ control or adeno-Cre (bar graph=Ip3r1 mRNA levels); FIG. 1E. Glucagon was added to HCs that were pre-treated for 1 h with vehicle control (Veh) or 10 μM H89. FIG. 1F. […] FIGS. 1G-1J. In vivo experiments. In FIG. 1G, mice were treated for 30 min with 200 μg kg−1 body weight of glucagon i.p., and in FIG. 1H, mice were pre-treated with 10 pmol g−1 xestospongin C or vehicle control i.p. 4 days prior to glucagon treatment. In FIGS. 1I-1J, mice were fed ad libitum or fasted for 12 h, or fasted for 12 h and then re-fed for 4 h.
FIGS. 28A-G. (Related to FIGS. 1 and 22). FIG. 28A Mice were injected i.p. with the indicated doses of glucagon and sacrificed 15 min later. The livers were probed for phospho- and total CaMKII and β-actin by immunoblot. FIG. 28B Mice (n=5/group) were fed ad libitum or fasted for 12 h and then plasma was assayed for glucagon (*P=0.007; mean±S.E.M.). FIG. 28C Mice were injected i.p. with 10 pmol g^−1 xestospongin C (XesC) or vehicle control each day for 4 days and then fed ad libitum or fasted for 12 h. Liver phospho-CaMKII, total CaMKII, and β-actin levels were assayed by immunoblot. FIG. 28D Immunoblot of CaMKII in HCs transduced with adeno-LacZ vs. CA-CaMKII. FIG. 28E HCs were transduced with adeno-LacZ or KD-CaMKII. Cells were serum-depleted overnight and then assayed for CaMKII activity (*P<0.005; mean±S.E.M.). […]
(§1) Camk2g−/− mice were generated as described previously (Backs et al., 2010) and crossed onto the C57BL6/J background. […] Fasting blood glucose was measured in mice that were fasted for 12-14 h, with free access to water, using a glucose meter (One Touch Ultra, Lifescan). […] Blood glucose levels were measured over the following 2 h. […]
as §1, with “Camk2g^−/−” for “Camk2g−/−”, “background. ob/ob mice were obtained from Jackson Labs.” for “background.”

[2] = system: cytosolic free calcium; assay: Calcium mobilization in primary hepatocytes (Fura-2 imaging); assay type: cell-based, mouse
Method: Mouse primary hepatocytes were plated on glass coverslips and loaded with 5 μM Fura-2 acetoxymethyl ester (Molecular Probes) in the presence of 0.025% (w/v) pluronic F127 (Sigma-Aldrich) in Media 199 (Mediatech) for 30 minutes. […] The ratio of fluorescence intensity at the two excitation wavelengths was calculated after subtracting background fluorescence. [Ca2+]I (cytosolic free calcium concentration) was calculated using a Fura-2 calcium imaging calibration kit (Invitrogen). Images were collected and analyzed using the MetaFluor software package (Universal Imaging Corp.). Graphs represent average responses from groups of 30-40 individual cells from representative single experiments. Bar graphs represent average responses (fold over average baseline) from 150-200 cells per condition. All experiments were repeated at least three times with similar results.

C1CCC[C@H]2CCCN3CC[C@@H](CCCCCC[C@@H]4CCCN5CC[C@@H](CC1)O[C@@H]45)O[C@@H]23 [Xestospongin C]
glucagon-induced CaMKII phosphorylation in liver ([1]; i.p. xestospongin C 10 pmol g−1 for 4 days, then glucagon): markedly reduced
fasting-induced phosphorylation of CaMKII in liver ([1]; xestospongin C treatment of the mice, 12 h fast): suppressed
cytosolic calcium mobilization in response to glucagon (and forskolin) ([2]; co-/pre-treatment with inhibitor): disrupted

glucagon: hormone used to stimulate hepatocytes and mice
hepatic CaMKII phosphorylation ([1]; bolus of i.p. glucagon): induced
glucagon dose capable of phosphorylating CaMKII in the liver (as low as) ([1]; i.p.): 1 µg/kg
cellular free calcium ([2]; exposure of primary hepatocytes to glucagon): rapid increase
